Assay results published in US20260049092A1, “ANTIBACTERIAL COMPOUNDS” (Blacksmith Medicines, Inc., priority 2022, published 2026).
Values after ≈ are worked out from the molar mass of the structure shown.

Assays:
Assay in all cases: Bacterial susceptibility testing (MIC, broth microdilution)
Assay type in all cases: cell-based
E. coli ATCC25922 = settings: cation adjusted Mueller-Hinton Broth, 35° C., 18-24 h; for MIC: Escherichia coli, ATCC25922, broth microdilution, read-out: E. coli ATCC25922 MIC
Method in brief: (§1)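 CLSI broth microdilution was run in cation-adjusted Mueller-Hinton broth with an inoculum of 3×10^5–7×10^5 CFU/mL and 2-fold compound dilutions. Plates were incubated in ambient air at 35° C for 18-24 h. MIC was the lowest concentration preventing visible growth (OD600 nm<0.05).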

P. aeruginosa PAO1 = settings: broth microdilution, cation adjusted Mueller-Hinton Broth, 35° C., 18-24 h; for MIC: Pseudomonas aeruginosa, PAO1, read-out: P. aeruginosa PAO1 MIC
Method in brief: as §1

P. aeruginosa ATCC27853 = settings: cation adjusted Mueller-Hinton Broth, 35° C., 18-24 h; for MIC: Pseudomonas aeruginosa, ATCC27853, broth microdilution, read-out: P. aeruginosa ATCC27853 MIC
Method in brief: as §1

K. pneumoniae ATCC13883 = settings: cation adjusted Mueller-Hinton Broth, 35° C., 18-24 h; for MIC: Klebsiella pneumoniae, ATCC13883, broth microdilution, read-out: K. pneumoniae ATCC13883 MIC
Method in brief: as §1

SMILES | MIC (E. coli ATCC25922) [µg/mL] | MIC (P. aeruginosa PAO1) [µg/mL] | MIC (P. aeruginosa ATCC27853) [µg/mL] | MIC (K. pneumoniae ATCC13883) [µg/mL] | E. coli ATCC25922 MIC (E. coli ATCC25922; broth microdilution) [µg/mL] | P. aeruginosa PAO1 MIC (P. aeruginosa PAO1) [µg/mL] | P. aeruginosa ATCC27853 MIC (P. aeruginosa ATCC27853; broth microdilution) [µg/mL] | K. pneumoniae ATCC13883 MIC (K. pneumoniae ATCC13883; broth microdilution) [µg/mL]
C[C@H](O)c1nccn1[C@@H](C#Cc1ccc(-c2ccc(O[C@H]3CCOC[C@@H]3O)cc2F)cc1)CO (single isomer, unassigned) [Compound 56] | 1 (≈ 2.14 µM) | 2 (≈ 4.29 µM) | 8 (≈ 17.1 µM) | 2 (≈ 4.29 µM) | – | – | – | –
C[C@H](O)c1nccn1[C@@H](C#Cc1ccc(-c2ccc(NC3COC[C@@H]3O)cc2F)cc1)CO (single isomer, unassigned) [Compound 57] | 1 (≈ 2.21 µM) | 2 (≈ 4.43 µM) | 2 (≈ 4.43 µM) | 4 (≈ 8.86 µM) | – | – | – | –
C[C@H](O)c1nccn1[C@@H](C#Cc1ccc(-c2ccc(NC3COC[C@H]3O)cc2F)cc1)CO (single isomer, unassigned) [Compound 58] | 1 (≈ 2.21 µM) | 4 (≈ 8.86 µM) | 4 (≈ 8.86 µM) | 4 (≈ 8.86 µM) | – | – | – | –
C[C@H](O)c1nccn1[C@@H](C#Cc1ccc(-c2ccc(N[C@@H]3COC[C@H]3O)c(F)c2)cc1)CO (single isomer, unassigned) [Compound 59] | 1 (≈ 2.21 µM) | 2 (≈ 4.43 µM) | 4 (≈ 8.86 µM) | 4 (≈ 8.86 µM) | – | – | – | –
C[C@H](O)c1nccn1[C@@H](C#Cc1ccc(-c2ccc(N[C@H]3COC[C@@H]3O)c(F)c2)cc1)CO (single isomer, unassigned) [Compound 60] | 2 (≈ 4.43 µM) | 4 (≈ 8.86 µM) | 4 (≈ 8.86 µM) | 4 (≈ 8.86 µM) | – | – | – | –
C[C@H](O)c1nccn1[C@@H](C#Cc1ccc(-c2ccc(O[C@@H]3COC[C@H]3O)c(Cl)c2)cc1)CO (single isomer, unassigned) [Compound 62] | 4 (≈ 8.53 µM) | 16 (≈ 34.1 µM) | > 32 | 8 (≈ 17.1 µM) | – | – | – | –
C[C@H](O)c1nccn1[C@@H](C#Cc1ccc(-c2ccc(OC3CN(CC#N)C3)cc2F)cc1)CO (single isomer, unassigned) [Compound 63] | 0.5 (≈ 1.09 µM) | 2 (≈ 4.34 µM) | 4 (≈ 8.69 µM) | 2 (≈ 4.34 µM) | – | – | – | –
C[C@H](O)c1nccn1[C@@H](C#Cc1ccc(-c2ccc(OC3CN(CC#N)C3)c(F)c2)cc1)CO (single isomer, unassigned) [Compound 64] | 1 (≈ 2.17 µM) | 8 (≈ 17.4 µM) | 8 (≈ 17.4 µM) | 2 (≈ 4.34 µM) | – | – | – | –
C[C@H](O)c1nccn1[C@@H](C#Cc1ccc(-c2ccc(NC3CN(CC#N)C3)cc2)cc1)CO (single isomer, unassigned) [Compound 66] | 1 (≈ 2.26 µM) | 2 (≈ 4.53 µM) | 4 (≈ 9.06 µM) | 4 (≈ 9.06 µM) | – | – | – | –
C[C@H](O)c1nccn1[C@@H](C#Cc1ccc(-c2ccc(OC3CC4(C3)CN(CC#N)C4)cc2)cc1)CO (single isomer, unassigned) [Compound 67] | 0.5 (≈ 1.04 µM) | 2 (≈ 4.14 µM) | 4 (≈ 8.29 µM) | 4 (≈ 8.29 µM) | – | – | – | –
C[C@H](O)c1nccn1[C@@H](C#Cc1ccc(-c2ccc(N[C@@H]3COC[C@H]3O)cc2)cc1)CO (single isomer, unassigned) [Compound 70] | 2 (≈ 4.61 µM) | 1 (≈ 2.31 µM) | 1 (≈ 2.31 µM) | 4 (≈ 9.23 µM) | – | – | – | –
C[C@H](O)c1nccn1[C@@H](C#Cc1ccc(-c2ccc(O[C@@H]3C[S+]([O-])C[C@H]3O)cc2)cc1)CO (single isomer, unassigned) [Compound 74] | 4 (≈ 8.57 µM) | 2 (≈ 4.29 µM) | 2 (≈ 4.29 µM) | 4 (≈ 8.57 µM) | – | – | – | –
C[C@H](O)c1nccn1[C@@H](C#Cc1ccc(-c2ccc(N3CC4(COC4)C3)cc2)cc1)CO (single isomer, unassigned) [Compound 75] | 0.25 (≈ 0.582 µM) | 2 (≈ 4.66 µM) | 4 (≈ 9.31 µM) | 1 (≈ 2.33 µM) | – | – | – | –
CC(=O)N1CC(Nc2ccc(-c3ccc(C#C[C@@H](CO)n4ccnc4[C@H](C)O)cc3)cc2)C1 (single isomer, unassigned) [Compound 76] | 2 (≈ 4.5 µM) | 4 (≈ 9 µM) | 4 (≈ 9 µM) | 16 (≈ 36 µM) | – | – | – | –
C[C@H](O)c1nccn1[C@@H](C#Cc1ccc(-c2ccc(N[C@H]3CCC[C@@H]3O)cc2)cc1)CO (single isomer, unassigned) [Compound 77] | 0.5 (≈ 1.16 µM) | 4 (≈ 9.27 µM) | 4 (≈ 9.27 µM) | 2 (≈ 4.63 µM) | – | – | – | –
CNC(=O)CN1CC(Oc2ccc(-c3ccc(C#C[C@@H](CO)n4ccnc4[C@H](C)O)cc3)cc2)C1 (single isomer, unassigned) [Compound 100] | 1 (≈ 2.11 µM) | 2 (≈ 4.21 µM) | 2 (≈ 4.21 µM) | 2 (≈ 4.21 µM) | – | – | – | –
C[C@H](O)c1nccn1[C@@H](C#Cc1ccc(-c2ccc(OC3CCN(CC#N)CC3)cc2)cc1)CO (single isomer, unassigned) [Compound 103] | 1 (≈ 2.13 µM) | 2 (≈ 4.25 µM) | 2 (≈ 4.25 µM) | 2 (≈ 4.25 µM) | – | – | – | –
C[C@H](O)c1nccn1[C@@H](C#Cc1ccc(-c2ccc(CC3CN(CC#N)C3)cc2)cc1)CO (single isomer, unassigned) [Compound 105] | 1 (≈ 2.27 µM) | 4 (≈ 9.08 µM) | 4 (≈ 9.08 µM) | 1 (≈ 2.27 µM) | – | – | – | –
C[C@H](O)c1nccn1[C@@H](C#Cc1ccc(-c2ccc(OC3COC3)cc2)cc1)CO (single isomer, unassigned) [Compound 107] | 0.25 (≈ 0.618 µM) | 2 (≈ 4.94 µM) | 4 (≈ 9.89 µM) | 0.5 (≈ 1.24 µM) | – | – | – | –
C[C@H](O)c1nccn1[C@@H](C#Cc1ccc(-c2ccc(N3CCC3=O)cc2)cc1)CO (single isomer, unassigned) [Compound 109] | 0.62 (≈ 1.54 µM) | 2 (≈ 4.98 µM) | > 32 | 1.5 (≈ 3.74 µM) | – | – | – | –
Cc1cc(-c2ccc(C#C[C@@H](CO)n3ccnc3[C@H](C)O)cc2)ccc1O[C@@H]1COC[C@H]1O (single isomer, unassigned) [Compound 113] | 4 (≈ 8.92 µM) | 32 (≈ 71.3 µM) | > 32 | 8 (≈ 17.8 µM) | – | – | – | –
Cc1cc(-c2ccc(C#C[C@@H](CO)n3ccnc3[C@H](C)O)cc2)ccc1O[C@H]1COC[C@@H]1O (single isomer, unassigned) [Compound 114] | 4 (≈ 8.92 µM) | 16 (≈ 35.7 µM) | > 32 | 8 (≈ 17.8 µM) | – | – | – | –
C[C@H](O)c1nccn1[C@@H](C#Cc1ccc(-c2ccc([C@H]3COC[C@@H]3O)cc2)cc1)CO (single isomer, unassigned) [Compound 115] | 1 (≈ 2.39 µM) | 2 (≈ 4.78 µM) | 8 (≈ 19.1 µM) | 1 (≈ 2.39 µM) | – | – | – | –
C[C@H](O)c1nccn1[C@@H](C#Cc1ccc(-c2ccc([C@@H]3COC[C@H]3O)cc2)cc1)CO (single isomer, unassigned) [Compound 116] | 0.5 (≈ 1.19 µM) | 1 (≈ 2.39 µM) | 4 (≈ 9.56 µM) | 2 (≈ 4.78 µM) | – | – | – | –
C[C@H](O)c1nccn1[C@@H](C#Cc1ccc(-c2ccc(CO[C@@H]3COC[C@H]3O)cc2)cc1)CO (single isomer, unassigned) [Compound 123] | 2 (≈ 4.46 µM) | 2 (≈ 4.46 µM) | 4 (≈ 8.92 µM) | 2 (≈ 4.46 µM) | – | – | – | –
CO[C@@H]1COC[C@H]1Oc1ccc(-c2ccc(C#C[C@@H](CO)n3ccnc3[C@H](C)O)cc2)cc1 (single isomer, unassigned) [Compound 125] | – | – | – | – | 1 | 2 | 8 | 2
CO[C@@H]1COC[C@H]1Oc1ccc(-c2ccc(C#C[C@@H](CO)n3ccnc3[C@H](C)O)cc2)cc1 (single isomer, unassigned) [Compound 126] | 0.5 (≈ 1.11 µM) | 2 (≈ 4.46 µM) | 4 (≈ 8.92 µM) | 1 (≈ 2.23 µM) | – | – | – | –
C[C@H](O)c1ccc(-c2ccc(C#C[C@@H](CO)n3ccnc3[C@H](C)O)cc2)cc1 (single isomer, unassigned) [Compound 134] | 1 (≈ 2.66 µM) | 4 (≈ 10.6 µM) | 8 (≈ 21.3 µM) | 8 (≈ 21.3 µM) | – | – | – | –
CC(=O)NCc1ccc(-c2ccc(C#C[C@@H](CO)n3ccnc3[C@H](C)O)cc2)cc1 (single isomer, unassigned) [Compound 143] | 4 (≈ 9.91 µM) | 2 (≈ 4.96 µM) | 8 (≈ 19.8 µM) | 4 (≈ 9.91 µM) | – | – | – | –
